Counter-ions that a name gives are not always drawn.
Test system: human EAAT2
Assay: EAAT2 protein levels in PA-EAAT2 cells by Western blot
Type: cell-based
Settings: PA-EAAT2 cells, 24 hr; for Fold increase for EAAT2 at indicated concentration (maximum activity): EAAT2 protein relative to DMSO; for concentration that reaches maximum activity: tested 0.0375-10 μM
Experimental: Compounds were evaluated in PA-EAAT2 cells, a primary astrocyte stably expressing human EAAT2 mRNAs (Kong et al., J Clin Invest. 2014:1255-67). Cells were treated with compound at 0.0375, 0.075, 0.15, 0.3, 0.6, 1.25, 2.5, 5, 10 μM for 24 hr and then harvested for measuring EAAT2 protein levels by Western blot analysis.

Structure (SMILES) | Fold increase for EAAT2 at indicated concentration (maximum activity) [fold] | concentration that reaches maximum activity [µM]
NCCn1nc(-c2ccccn2)ccc1=O [Compound 102, 2-(2-Aminoethyl)-6-(pyridin-2-yl)pyridazin-3(2H)-one hydrochloride] | 2.8 ± 0.3 | 1.25
CN(CCn1nc(-c2ccccn2)ccc1=O)c1ccccc1 [Compound 110, 2-(2-(Methyl(phenyl)amino)ethyl)-6-(pyridin-2-yl)pyridazin-3(2H)-one] | 2.3 ± 0.3 | 0.6
CNC(=O)CCn1nc(-c2ccccn2)ccc1=O [Compound 123, N-Methyl-3-(6-oxo-3-(pyridin-2-yl)pyridazin-1(6H)-yl)propanamide] | 2.5 ± 0.2 | 0.3
O=c1ccc(-c2ccccn2)nn1CCN1CCOCC1 [Compound 126, 2-(2-Morpholinoethyl)-6-(pyridin-2-yl)pyridazin-3(2H)-one hydrochloride] | 2.2 ± 0.5 | 0.3
O=C1CCCN1CCn1nc(-c2ccccn2)ccc1=O [Compound 133, 2-(2-(2-Oxopyrrolidin-1-yl)ethyl)-6-(pyridin-2-yl)pyridazin-3(2H)-one] | 1.9 ± 0.3 | 2.5
O=c1ccc(-c2ccccn2)nn1Cc1ncco1 [Compound 146, 2-(Oxazol-2-ylmethyl)-6-(pyridin-2-yl)pyridazin-3(2H)-one] | 2.6 ± 0.2 | 2.5
CN(C)CCCn1nc(-c2ccccn2)ccc1=O [Compound 166, 2-(3-(Dimethylamino)propyl)-6-(pyridin-2-yl)pyridazin-3(2H)-one hydrochloride] | 2.0 ± 0.2 | 0.3
COCCn1nc(-c2ccccn2)ccc1=O [Compound 172, 2-(2-Methoxyethyl)-6-(pyridin-2-yl)pyridazin-3(2H)-one] | 2.9 ± 0.1 | 0.3
Cc1cc(-c2ccccn2)nn(CCN(C)C)c1=O [Compound 195, 2-(2-(Dimethylamino)ethyl)-4-methyl-6-(pyridin-2-yl)pyridazin-3(2H)-one hydrochloride] | 2.5 ± 0.2 | 0.3
Cc1cc(=O)n(CCN(C)C)nc1-c1ccccn1 [Compound 196, N,N-2-(2-(dimethylamino)ethyl)-5-methyl-6-(pyridin-2-yl)pyridazin-3(2H)-one hydrochloride] | 4.2 ± 0.2 | 0.6
CC(c1ccccn1)n1nc(-c2ccccn2)ccc1=O (stereo not drawn) [Compound 198, 6-(Pyridin-2-yl)-2-(1-(pyridin-2-yl)ethyl)pyridazin-3(2H)-one] | 2.0 ± 0.3 | 0.15
Cn1ccnc1Cn1nc(-c2ccccn2)ccc1=O [Compound 201] | 2.5 ± 0.4 | 0.6
CN(C)CCOc1ccccc1NC(=O)Cn1nc(-c2ccccn2)ccc1=O [Compound 203, N-(2-(2-(Dimethylamino)ethoxy)phenyl)-2-(6-oxo-3-(pyridin-2-yl)pyridazin-1(6H)-yl)acetamide] | 2.0 ± 0.2 | 0.6
COc1ccccc1-c1ccc(=O)n(CCN(C)C)n1 [Compound 206, 2-(2-(Dimethylamino)ethyl)-6-(2-methoxyphenyl)pyridazin-3(2H)-one hydrochloride] | 2.4 ± 0.1 | 0.15
COc1cccc(-c2ccc(=O)n(CCN(C)C)n2)c1 [Compound 207, 2-(2-(Dimethylamino)ethyl)-6-(3-methoxyphenyl)pyridazin-3(2H)-one hydrochloride] | 3.5 ± 0.3 | 0.15
COc1ccc(-c2ccc(=O)n(CCN(C)C)n2)cc1 [Compound 208, 2-(2-(Dimethylamino)ethyl)-6-(4-methoxyphenyl)pyridazin-3(2H)-one hydrochloride] | 1.7 ± 0.2 | 0.3
CN(C)CCn1cc(-c2ccccn2)ccc1=O [Compound 213, 1′-(2-(Dimethylamino)ethyl)-[2,3′-bipyridin]-6′(1′H)-one hydrochloride] | 2.3 ± 0.1 | 0.6
CN(C)CCn1cc(-c2ccccn2)ncc1=O [Compound 214, 1-(2-(Dimethylamino)ethyl)-5-(pyridin-2-yl)pyrazin-2(1H)-one hydrochloride] | 1.5 ± 0.1 | 2.5

From patent US11702403B2, “EAAT2 activators and methods of using thereof” (OHIO STATE INNOVATION FOUNDATION, priority 2018, dated 2023)
